“Also recorded” adds a separate entry of the source.
Experiments:
[1] = Stability of aqueous dispersions of components; type: physicochemical; conditions: laboratory homogeniser dispersion in water
[2] = tested on: Blata orientalis; assay: Evaluation of insecticidal effect of individual components (Example 9); type: in vivo, Oriental cockroach; conditions: 0.3 grams on back, pairs; for Alive: weight %: caprylic acid 0.8, Miglyol 0.2, Tween 80 0.015, lecithin 0.15, DPPG 0.12, xanthan gum 0.0075; for Dead: caprylic acid 0.8, Emulsion Table 1 5.0 weight %
Experimental: In order to evaluate the effect of individual components, the higher concentration of each was used, these are marked with an asterisk as presented in Table 9
The cockroach Blata orientalis was used as described in Example 1 part 3 because of its size, ease of application and predictable response to the formulation.
Pairs of insects were treated by applying 0.3 grams (ml) of test items from Table 9 above directly onto their backs following which individual insects were placed in separate plastic containers and observed over a period of one hour and overnight. A 5% aqueous dispersion of the emulsion from Table 1 and sterile distilled water were used as controls.

[3] = Solubility and solution properties; conditions: for solubility: water or oil
Experimental: An aqueous dispersion of de-lipidised lecithin and DPPG is prepared by blending the component with water at the desired concentration and allowing at least one hour to fully hydrate.
Both of these are water soluble and may be added to the water phase of either the emulsion concentrate or the diluted suspension.

[4] = tested on: Blata orientalis; assay: Efficacy of NAC and PCA supplemented Reactive Emulsions, spray (Example 13); type: in vivo, Oriental Cockroach; conditions: 50 mM citrate buffer, NAC or PCA 0.1%, emulsion 5% where present; for Alive / Immobile / Moribund: ten insects
Experimental: In one embodiment of the present invention, Reactive Emulsions of this invention are acidic and are kept at or below pH 5.5 to retain reactivity. For this reason 0.1% W/W solutions of NAC and PCA were prepared in 50 mM sodium citrate buffer at pH 5.0 and reduced fatty acid Reactive Emulsion concentrate (Table 15) was added to these at 5% by weight.
NAC and PCA controls were prepared by dissolving 0.1% of each in 50 mM sodium citrate buffer • reduced fatty acid Reactive Emulsions were used to illustrate the additive effect of NAC and PCA because the rate of activity of higher concentration fatty acid Emulsions would swamp the effect.
A 5% by weight suspension of Emulsion concentrate was prepared in 50 mM sodium citrate buffer without either NAC or PCA was prepared as a negative control and 50 mM buffer on its own was used as a blank.
(§1) The Oriental Cockroach Blata Orientalis was used to evaluate the efficacy of the NAC and PCA supplemented reactive emulsion and the experimental design was the same as in Example 1. Individual insects were lifted with tweezers and sprayed with either NAC or PCA supplemented test formulations, negative control or buffer blank, ten insects in each case, and evaluated after 1 hour and 10 hours.

[5] = tested on: lice; conditions: approved by FDA as a 1% solution; cited from earlier work
[6] = tested on: Blata orientalis; assay: Efficacy of Permethrin delivered in reduced fatty acid Reactive Emulsion, spray (Example 12); type: in vivo, Oriental Cockroach; conditions: emulsion concentrates diluted to 5% in water, where present, 0.1%
Experimental: Permethrin was added to the oil phase at 2 grams in 20 of total oil (oil phase) which is 2% of the concentrated reactive emulsion. For use in the test the concentrate was diluted to 5% in water, that is 1% oil phase containing 0.1% Permethrin (10% of recommended dose).
A Reactive Emulsion control was prepared using the formulation in Table 13 by replacing Permethrin with Miglyol at 15% and free fatty acid at 5%.
as §1, with “non-reactive” for “NAC and PCA supplemented reactive”, “non-reactive” for “NAC or PCA supplemented”, “formulation, positive” for “formulations, negative”, “water” for “buffer”

[7] = tested on: hematophagous insects; conditions: cited from earlier work

Row | Compound | stability of aqueous dispersion [1] | Alive ([2]; 1 hour post treatment) | Alive ([2]; 18 hours post treatment) | solubility [3] | Alive ([4]; 1 hour) | Immobile ([4]; 1 hour) | Moribund ([4]; 1 hour) | Mortality / efficacy ([4]; 10 hours, 600 min) | Alive ([4]; 10 hours) | Immobile ([4]; 10 hours) | Moribund ([4]; 10 hours) | other results
1 | CCCCCCCC(=O)O [Caprylic acid] | co-acervate and settle out within minutes of being formed | 2 | 1 |  |  |  |  |  |  |  |  | Dead ([2]; 18 hours post treatment): 1; Dead ([2]; 18 hours post treatment, listed as caprylic acid): one
2 | CCCCCCCCCCCCCCCC(=O)OCC(COP(=O)(O)OCC(O)CO)OC(=O)CCCCCCCCCCCCCCC (centres unmarked) [DPPG, di-palmitoyl phosphatidyl glycerol] | tendency to settle out | 2 | 2 |  |  |  |  |  |  |  |  | 
3 | CC(=O)N[C@@H](CS)C(=O)O [N-acetyl Cysteine, N-Acetyl Cysteine] |  |  |  | water soluble | 10 | 0 | 0 | 10% | 9 | 1 | 0 | pH in solution ([3]; in solution): slightly basic pH in solution; Mortality / efficacy ([4]; 1 hour, 60 min): 0%; Mortality / efficacy ([4]; 1 hour, listed as NAC): no effect; Mortality / efficacy ([4]; 10 hours, listed as NAC, 600 min): 10%
4 | CC1(C)C(C=C(Cl)Cl)C1C(=O)OCc1cccc(Oc2ccccc2)c1 (centres unmarked) [Permethrin] |  |  |  | sparingly soluble in water; also recorded: basically oil soluble |  |  |  |  |  |  |  | effectiveness against lice [5]: effective against adult lice but not their eggs; Mortality ([6]; 1 hour): 0%; Alive ([6]; 1 hour, ten insects): 10; Mortality / efficacy ([6]; 10 hours, 600 min): 30%; Alive ([6]; 10 hours, ten insects): 7; Immobile ([6]; 10 hours, ten insects): 0; Moribund ([6]; 10 hours, ten insects): 3
5 | CCC(C)OC(=O)N1CCCCC1CCO (centres unmarked) [Picaridin] |  |  |  |  |  |  |  |  |  |  |  | repellent effect [7]: broad spectrum effects combined with low toxicity
6 | O=C1CCC(C(=O)O)N1 (centres unmarked) [Pyrrolidone Carboxylic Acid, 2-Pyrrolidone-5-Carboxylic Acid] |  |  |  |  | 10 | 0 | 0 | 20% | 8 | 0 | 2 | Mortality / efficacy ([4]; 1 hour): 0%; Mortality / efficacy ([4]; 10 hours, listed as PCA, 600 min): 20%
